Assay results: article PMC5189922 (Journal of medicinal chemistry, 2016)
Entries after “also recorded” stand apart in the source; their conditions may differ.

What was measured:
human κ-opioid receptor = human κ-opioid receptor (Homo sapiens, UniProt P41145); type: cell-based
human µ-opioid receptor = human µ-opioid receptor (Homo sapiens, UniProt P35372); type: cell-based
[1] = tested on: human µ-opioid receptor β-arrestin-2; assay: MOR-mediated β-arrestin-2 recruitment; type: cell-based
Hot water = type: in vivo, mice; settings: for antinociceptive effect in tail-flick assay: male B6-SJL mice, 10 s cutoff
[2] = Accelerating rotarod performance assay
[3] = Conditioned place preference; settings: male Sprague Dawley rats, vs vehicle
[4] = Cumulative dose-response tail-flick assay and tolerance evaluation; type: in vivo, mice; settings: cumulative dosing, day 9 after daily 10 mg/kg s.c. on days 2–8 (tolerance)

Chain of human κ-opioid receptor (P41145 whole entry): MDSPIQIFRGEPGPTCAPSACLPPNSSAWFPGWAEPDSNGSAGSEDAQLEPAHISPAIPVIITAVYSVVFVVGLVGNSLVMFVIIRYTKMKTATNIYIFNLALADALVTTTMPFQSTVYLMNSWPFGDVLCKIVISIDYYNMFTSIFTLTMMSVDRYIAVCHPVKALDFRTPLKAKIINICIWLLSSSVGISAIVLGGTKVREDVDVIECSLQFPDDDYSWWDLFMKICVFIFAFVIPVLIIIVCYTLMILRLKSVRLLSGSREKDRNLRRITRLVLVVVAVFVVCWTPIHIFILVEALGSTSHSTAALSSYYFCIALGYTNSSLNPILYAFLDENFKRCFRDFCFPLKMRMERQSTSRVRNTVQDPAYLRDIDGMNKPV
Chain of human µ-opioid receptor (P35372 whole entry): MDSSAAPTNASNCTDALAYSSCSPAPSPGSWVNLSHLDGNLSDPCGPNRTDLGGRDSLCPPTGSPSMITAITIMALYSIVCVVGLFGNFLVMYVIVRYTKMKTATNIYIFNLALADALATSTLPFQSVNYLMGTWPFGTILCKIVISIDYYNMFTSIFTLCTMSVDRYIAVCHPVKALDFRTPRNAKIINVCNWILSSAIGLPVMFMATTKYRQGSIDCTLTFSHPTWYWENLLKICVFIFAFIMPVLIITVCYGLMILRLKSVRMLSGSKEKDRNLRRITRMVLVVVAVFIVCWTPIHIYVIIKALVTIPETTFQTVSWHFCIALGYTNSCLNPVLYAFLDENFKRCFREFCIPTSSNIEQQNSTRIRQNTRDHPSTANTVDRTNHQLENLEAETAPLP

In the case of COC(=O)[C@@H]1C[C@@H](OC(=O)c2ccccc2)C(=O)[C@H]2[C@@]1(C)CC[C@H]1C(=O)O[C@H](c3ccoc3)C[C@]21C [Compound 4], the “activity at KORs (in words)” value (human κ-opioid receptor) is reported as “complete loss of activity” and the “activity at MORs (in words)” value (human µ-opioid receptor) is reported as “complete loss of activity”.

For COC(=O)[C@@H]1C[C@H](OC(=O)c2ccccc2)C(=O)[C@H]2[C@@]1(C)CC[C@H]1C(=O)O[C@H](c3ccoc3)C[C@]21C [Compound 2, herkinorin, reference compound], the EC50 ([1]; read-out: β-arrestin-2 recruitment EC50) was over 3000 nM, the “antinociceptive effect in tail-flick assay” value (Hot water; 1, 5, and 10 mg/kg i.p.) was “no significant antinociceptive effects” and the “activity at KORs (in words)” value (human κ-opioid receptor) was “partial agonist”. For the same molecule, the “motor coordination on rotarod” value ([2]; dose not given, data not shown) was “no observable effect on motor co-ordination” and the “conditioned place preference (CPP score)” value ([3]; 5 mg/kg) was “Neither 5 (5 and 10 mg/kg) nor 2 (5 mg/kg) were significantly different to vehicle”.

For CC(=O)O[C@@H]1C=C(OC(=O)c2cccc(F)c2)C(=O)[C@H]2[C@@]1(C)CC[C@H]1C(=O)O[C@H](c3ccoc3)C[C@]21C [Compound 9b], the “Selectivity κ/µ” value (human µ-opioid receptor) was >2 000.

In the case of COC(=O)[C@@H]1C=C(O)C(=O)[C@H]2[C@@]1(C)CC[C@H]1C(=O)O[C@H](c3ccoc3)C[C@]21C [Compound 7a, Methyl-(2S,4aR,6aR/S,7R,10aR,10bR)-2-(furan-3-yl)-9-hydroxy-6a,10b-dimethyl-4,10-dioxo-2,4,4a,5,6,6a,7,10,10a,10b-decahydro-1H-;benzo[f]isochromene-7-carboxylate], the “activity at KORs (in words)” value (human κ-opioid receptor) is reported as “active”.

In the case of COC(=O)[C@@H]1C=C(OC(=O)c2ccccc2)C(=O)[C@H]2[C@@]1(C)CC[C@H]1C(=O)O[C@H](c3ccoc3)C[C@]21C [Compound 5, (2S,4aR, 6aR,7R,10aR,10bR)-Methyl 9-((benzoyl)oxy)-2-(furan-3-yl)-6a,10b-dimethyl-4,10-dioxo-2,4,4a,5,6,6a,7,10,10a,10b-decahydro-1H-benzo[f]isochromene-7-carboxylate], the Emax ([1]; read-out: % Efficacy ± SEM) is reported as 96 ± 3%, the “EC50 antinociception day 9” value [4] is reported as 7.9 mg/kg and the “time of maximal antinociceptive effects” value (Hot water; 10 mg/kg i.p.) is reported as 30 min. The “antinociceptive effect in tail-flick assay” value (Hot water; 5 and 10 mg/kg i.p., vs vehicle) was “significant antinociceptive effects”, the “antinociceptive effect after naloxone pre-treatment” value (Hot water; naloxone 10 mg/kg s.c. 45 min pre-treatment) was “blocked” and the “activity at KORs (in words)” value (human κ-opioid receptor) was “no activity”. The “motor coordination / sedation on rotarod” value ([2]; 10 mg/kg i.p., 4 to 40 rpm over 300 s) was “slight sedation only at the 15 min time point” and the “conditioned place preference (CPP score)” value ([3]; 5 mg/kg and 10 mg/kg i.p.) was “CPP score similar to the vehicle control; also recorded: Neither 5 (5 and 10 mg/kg) nor 2 (5 mg/kg) were significantly different to vehicle”.

With CC(=O)O[C@@H]1C[C@H](NC(=O)c2ccccc2)C(=O)[C@H]2[C@@]1(C)CC[C@H]1C(=O)O[C@H](c3ccoc3)C[C@]21C [Compound 3, herkamide, reference compound] the “Selectivity κ/µ” value (human µ-opioid receptor) was >3 000.

In the case of COC(=O)[C@@H]1CC(=O)C(O)=C2[C@@]1(C)CC[C@H]1C(=O)O[C@H](c3ccoc3)C[C@]21C [Compound 7b, Methyl-(2S,4aR,6aS,7R,10bS)-2-(furan-3-yl)-10-hydroxy-6a,10b-dimethyl-4,9-dioxo-1,4,4a,5,6,6a,7,8,9,10b-decahydro-2H-benzo[f]isochromene-7-carboxylate], the “activity at KORs (in words)” value (human κ-opioid receptor) is reported as “completely inactive”.
